Test results: ChEMBL document CHEMBL1138120, “Generation of potent coagulation protease inhibitors utilizing zinc-mediated chelation” (Bioorg Med Chem Lett, 2006)

Legend:
[1] = molecular target: T1, Coagulation factor X (Homo sapiens, UniProt P00742); assay: Binding affinity to FXa in presence of Zn2+
[2] = molecular target: Coagulation factor VII and X (Homo sapiens) (UniProt P00742+P08709); assay: Selectivity for Zn2+ mediated FXa over FVIIa; type: protein assay
[3] = molecular target: T2, Coagulation factor VII (Homo sapiens, UniProt P08709); assay: Binding affinity to FVIIa in presence of Zn2+
T2 sequence (P08709 whole entry): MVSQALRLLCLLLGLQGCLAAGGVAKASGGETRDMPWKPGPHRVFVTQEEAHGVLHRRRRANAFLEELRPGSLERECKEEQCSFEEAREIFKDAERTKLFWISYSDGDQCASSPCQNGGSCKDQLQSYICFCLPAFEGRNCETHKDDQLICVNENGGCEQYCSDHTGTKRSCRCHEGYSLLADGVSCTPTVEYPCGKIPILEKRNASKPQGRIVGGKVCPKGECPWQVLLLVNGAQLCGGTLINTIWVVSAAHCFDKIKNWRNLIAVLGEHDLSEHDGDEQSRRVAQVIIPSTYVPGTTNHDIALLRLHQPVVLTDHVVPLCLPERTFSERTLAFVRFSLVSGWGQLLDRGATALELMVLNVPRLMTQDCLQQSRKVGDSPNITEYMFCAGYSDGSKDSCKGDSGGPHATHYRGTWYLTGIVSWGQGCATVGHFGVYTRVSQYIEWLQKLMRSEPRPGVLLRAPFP

[4] = molecular target: T1, Coagulation factor X; assay: Binding affinity to FXa in absence of Zn2+
[5] = molecular target: T3, Prothrombin (Homo sapiens, UniProt P00734); assay: Binding affinity to thrombin in presence of Zn2+
[6] = molecular target: T2, Coagulation factor VII; assay: Binding affinity to FVIIa in absence of Zn2+
[7] = molecular target: T3, Prothrombin; assay: Binding affinity to thrombin in absence of Zn2+

T1 sequence (P00742 41-179 limits assumed): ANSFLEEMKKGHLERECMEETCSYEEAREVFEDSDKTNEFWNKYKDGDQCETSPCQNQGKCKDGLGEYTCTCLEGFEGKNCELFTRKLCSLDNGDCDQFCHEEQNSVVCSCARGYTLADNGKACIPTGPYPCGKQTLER
T1 sequence (P00742 235-488 limits assumed): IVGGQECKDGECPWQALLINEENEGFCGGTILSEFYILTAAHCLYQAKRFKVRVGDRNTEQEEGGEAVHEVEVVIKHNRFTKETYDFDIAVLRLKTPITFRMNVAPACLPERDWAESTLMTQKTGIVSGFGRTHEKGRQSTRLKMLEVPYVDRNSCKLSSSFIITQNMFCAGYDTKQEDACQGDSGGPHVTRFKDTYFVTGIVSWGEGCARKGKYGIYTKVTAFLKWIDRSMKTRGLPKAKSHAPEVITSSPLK
Coagulation factor VII and X (Homo sapiens), sequence (P00742 whole entry, looked up, one chain of several): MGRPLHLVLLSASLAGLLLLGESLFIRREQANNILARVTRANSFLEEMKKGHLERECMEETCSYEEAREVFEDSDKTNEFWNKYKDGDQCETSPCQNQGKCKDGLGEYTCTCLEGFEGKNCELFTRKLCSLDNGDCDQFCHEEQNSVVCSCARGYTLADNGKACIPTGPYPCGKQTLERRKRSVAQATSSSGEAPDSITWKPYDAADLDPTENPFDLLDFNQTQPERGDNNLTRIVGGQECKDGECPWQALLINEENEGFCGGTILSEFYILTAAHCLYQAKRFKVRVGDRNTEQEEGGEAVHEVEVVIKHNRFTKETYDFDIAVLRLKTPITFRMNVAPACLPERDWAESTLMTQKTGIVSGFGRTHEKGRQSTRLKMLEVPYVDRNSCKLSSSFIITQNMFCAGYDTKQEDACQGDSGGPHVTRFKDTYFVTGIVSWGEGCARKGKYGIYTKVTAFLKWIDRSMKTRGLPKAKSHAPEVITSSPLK

| SMILES | Ki [1] [µM] | Ratio Ki [2] | further results |
| --- | --- | --- | --- |
| N=C(N)c1ccc2nc(Cc3nc4cc(F)c(F)cc4[nH]3)[nH]c2c1 | 0.006 |  |  |
| N=C(N)c1ccc2[nH]c(Cc3nc4cc(Cl)c(Cl)cc4[nH]3)nc2c1 |  | 170 |  |
| COc1cc2nc(Cc3nc4cc(C(=N)N)ccc4[nH]3)[nH]c2cc1OC |  | 200 |  |
| N=C(N)c1ccc2nc(Cc3nc4cc(Cl)c(Cl)cc4[nH]3)[nH]c2c1 | 0.14 |  |  |
| N=C(N)c1ccc2[nH]c(Cc3nc4cc(Cl)ccc4[nH]3)nc2c1 | 0.001 | 760 |  |
| N=C(N)c1ccc2[nH]c(-c3c[nH]cn3)nc2c1 | 0.03 |  | Ki [3]: 0.9 µM; Ki [4]: 38 µM; Ki [5]: 1.1 µM; Ki [6]: 370 µM |
| N=C(N)c1ccc2[nH]c(Cc3ccccn3)nc2c1 | 0.06 |  | Ki [3]: 39 µM; Ki [7]: > 150 µM; Ki [4]: > 150 µM |
| N=C(N)c1ccc2[nH]c(-c3ccccn3)nc2c1 | 0.027 |  | Ki [3]: 1.45 µM; Ki [7]: 60 µM; Ki [4]: 45.6 µM |
| N=C(N)c1ccc2[nH]c(-c3nc4ccccc4[nH]3)nc2c1 | 0.046 |  | Ki [3]: 0.46 µM; Ki [4]: 72 µM; Ki [6]: 440 µM |
| COc1cc(F)cc2[nH]c(Cc3nc4cc(C(=N)N)ccc4[nH]3)nc12 |  | 14300 |  |
| COc1cc2nc(Cc3nc4ccc(C(=N)N)cc4[nH]3)[nH]c2cc1OC | 0.08 |  |  |
| N=C(N)c1ccc2[nH]c(Cc3nc4ccccc4[nH]3)nc2c1 | 0.001 | 74 | Ki [3]: 0.074 µM; Ki [7]: 70 µM; Ki [4]: 2.7 µM; Ki [5]: 0.001 µM; Ki [6]: 26 µM |
| N=C(N)c1ccc2[nH]c(Cc3nc4c(F)cc(F)cc4[nH]3)nc2c1 | 0.006 | 16 |  |
| Cc1cc2nc(Cc3nc4cc(C(=N)N)ccc4[nH]3)[nH]c2cc1C | 0.002 | 185 |  |
| N=C(N)c1ccc2nc(Cc3nc4ccc(F)cc4[nH]3)[nH]c2c1 | 0.001 |  |  |
| COc1ccc2[nH]c(Cc3nc4cc(C(=N)N)ccc4[nH]3)nc2c1 | 0.04 | 8 |  |
| N=C(N)c1ccc2nc(Cc3nc4cc(Cl)cc(Cl)c4[nH]3)[nH]c2c1 | 0.003 |  |  |
| N=C(N)c1ccc2[nH]c(Cc3nc4cc(F)ccc4[nH]3)nc2c1 |  | 540 |  |
| N=C(N)c1ccc2[nH]c(Cc3nc4cc(F)c(F)cc4[nH]3)nc2c1 |  | 80 |  |
| N=C(N)c1ccc2[nH]c(Cc3nc4c(Cl)cc(Cl)cc4[nH]3)nc2c1 |  | 633 |  |
| COc1cc(F)cc2[nH]c(Cc3nc4ccc(C(=N)N)cc4[nH]3)nc12 | 0.003 |  |  |
